In patent US11612560B2, “Treatment of Raynaud's phenomenon by inhibition of transient receptor potential melastatin-8 (TRPM-8)” (The University of Toledo, priority 2015, dated 2023):
Entries after “also recorded” stand apart in the source; their conditions may differ. One block for each compound: values may come before it.

Key:
[1] = Storage stability of capsazepine; assay type: physicochemical; conditions: long term storage recommended at −20° C.
[2] = target: T1, TRPM8 (Homo sapiens, UniProt Q7Z2W7); assay: MVEC gene expression (ET1, NOS3, PTGIS mRNA) by qPCR after TRPM8 activation; assay type: cell-based
T1 construct: Human MVEC express functional TRPM8; endogenous in cells; host or cells: human microvascular endothelial cells (normal MVEC and SSc-MVEC)
Experimental: FIGS. 4A-4C: Effects of cold exposure on ET1 (FIG. 4A), NOS3 (FIG. 4B), and PTGIS (FIG. 4C) mRNA expression. Normal MVECs were exposed to 18° C. temperature for 1 hr. The mRNA expression levels were measured by qPCR.
FIGS. 5A-5C: Effects of Menthol on ET1 (FIG. 5A), NOS3 (FIG. 5B), and PTGIS (FIG. 5C) mRNA expression. Normal endothelial cells were treated with menthol (MT) at 20 μM, 100 μM, and 500 μM with and without capsazepine (CapZ) for 24 hours. The mRNA expression levels were measured by qPCR.
The effect of exposure of normal MVEC to […] on MVEC gene expression was evaluated. Specifically, gene expression levels of NOS3, PTGIS, and ET1 in MVEC were evaluated in response to TRPM8 activation by cold exposure (FIGS. 4A-4C) and menthol (FIGS. 5A-5C) with and without Capsazepine, which is one of the TRPM8 receptor inhibitors.
Thus, the use of TRPM8 antagonists can be an effective strategy for treatment Raynaud's phenomenon in SSc patients.

[3] = target: T1, TRPM8; assay: Intracellular calcium (Ca2+ influx) in MVEC, Fluo-4AM microfluorometry; assay type: cell-based
Experimental: FIG. 2: Pharmacological activation of TRPM8 in human microvascular endothelial cells. […] ATP was used as the positive control.
FIG. 3: Effects of menthol on intracellular calcium level in NL-MVECs and SSc-MVECs. Cells were loaded with 2 μM calcium indicator dye Fluo-4AM for 1 hour and treated with menthol with and without capsazepine for 10 minutes and then observed under microscope.
To evaluate the functional role of TRPM8 in MVECs, the intracellular calcium ([Ca^2+]) influx into MVEC by Ca^2+ was evaluated by microfluorometry studies in response to the addition of menthol or exposure to cold, which are known to activate TRPM8 (FIG. 2).
The effect of menthol is abrogated by the use of Capsazepine, a TRPM8 receptor inhibitor. These findings indicate that TRPM8 mediates functional effects in MVEC that are mediated by calcium influx, which is antagonized by the use of Capsazepine.

[4] = tested on: patients with Raynaud's phenomenon; assay: Cold challenge test with infrared thermography of digital blood flow after topical application; assay type: in vivo, human
Description: A FLIR thermography system (Wilsonville, Oreg.) was used to evaluate blood flow in the digits in response to a cold challenge test in addition to PPG. The advantage of combining the two modalities is that both (i) a dynamic assessment of blood flow in the hands as reflected by changes in temperature in response to cold challenge tests, as well as (ii) the ability to obtain single point measurements, can be achieved.
FIGS. 8A-8B show the local application of econazole to the left index finger, and clotrimazole to the ring finger, for 15 minutes before cold exposure (FIG. 8A). […] Note the red color that depicts higher temperature of skin on the left index finger in the right panel of FIG. 8B.
Gel formulations of 3% econazole and 3% clotrimazole were prepared, then applied to the index and ring fingers (respectively) of the left hand of patients with Raynaud's phenomenon. The topical application was left for 15 minutes on the fingers, before inducing Raynaud's phenomenon by a cold challenge test. The digital blood flow was analyzed by infrared thermography.

[5] = activation of TRPM8 in MVEC by cold temperature or by menthol, qPCR

T1 sequence (Q7Z2W7 whole entry): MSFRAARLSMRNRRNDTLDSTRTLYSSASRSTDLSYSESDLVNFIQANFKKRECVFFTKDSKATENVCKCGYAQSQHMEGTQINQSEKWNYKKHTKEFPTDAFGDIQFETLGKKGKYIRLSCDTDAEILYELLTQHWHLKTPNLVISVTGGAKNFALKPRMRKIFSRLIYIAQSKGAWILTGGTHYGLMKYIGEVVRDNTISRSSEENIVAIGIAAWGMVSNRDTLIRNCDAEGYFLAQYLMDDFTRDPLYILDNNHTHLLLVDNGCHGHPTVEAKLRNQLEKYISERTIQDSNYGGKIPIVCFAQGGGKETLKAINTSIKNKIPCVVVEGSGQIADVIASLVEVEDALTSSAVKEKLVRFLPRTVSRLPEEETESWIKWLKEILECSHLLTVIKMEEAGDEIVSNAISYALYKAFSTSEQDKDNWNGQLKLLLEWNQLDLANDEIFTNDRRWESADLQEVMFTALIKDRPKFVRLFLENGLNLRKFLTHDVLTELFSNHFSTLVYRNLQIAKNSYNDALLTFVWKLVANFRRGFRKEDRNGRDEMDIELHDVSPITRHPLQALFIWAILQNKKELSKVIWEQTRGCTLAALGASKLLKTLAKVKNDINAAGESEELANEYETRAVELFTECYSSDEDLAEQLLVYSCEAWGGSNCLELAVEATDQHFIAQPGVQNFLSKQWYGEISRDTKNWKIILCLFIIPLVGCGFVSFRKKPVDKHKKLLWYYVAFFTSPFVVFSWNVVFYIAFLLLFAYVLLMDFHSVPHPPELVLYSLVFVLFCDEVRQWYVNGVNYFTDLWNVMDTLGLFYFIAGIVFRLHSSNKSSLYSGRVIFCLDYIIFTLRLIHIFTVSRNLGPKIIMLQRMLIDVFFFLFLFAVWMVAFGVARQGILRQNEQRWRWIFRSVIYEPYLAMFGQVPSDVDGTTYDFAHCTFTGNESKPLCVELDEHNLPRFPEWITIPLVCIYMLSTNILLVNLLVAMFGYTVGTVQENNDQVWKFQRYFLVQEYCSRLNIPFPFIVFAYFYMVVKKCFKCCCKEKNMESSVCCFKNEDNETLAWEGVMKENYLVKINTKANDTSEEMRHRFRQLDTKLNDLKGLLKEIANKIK

- stability at room temperature [1]: not stable at room temperature
- effect on menthol-induced intracellular calcium increase ([3]; menthol with capsazepine, 10 minutes, NL-MVECs and SSc-MVECs): abrogated
SMILES: Oc1cc2c(cc1O)CN(C(=S)NCCc1ccc(Cl)cc1)CCC2 [capsazepine]
- effect on cold/menthol-induced changes of ET1, NOS3 and PTGIS expression ([2]; MVEC, addition of TRPM8 antagonist): normalization of gene expression levels; also recorded: reversed; also recorded: near normalization

SMILES: Clc1ccc(COC(Cn2ccnc2)c2ccc(Cl)cc2Cl)cc1 (centres unmarked) [econazole]
- cold induced decrease in blood flow to the fingers ([4]; 3% gel on left index finger, 15 minutes before cold challenge, infrared thermography): prevented the cold induced decrease in blood flow
- subjective feeling of finger coldness by patient report ([4]; after topical application and cold challenge): less finger coldness
- finger temperature in thermal image after cold exposure ([4]; local application to left index finger for 15 minutes before cold exposure): warmer than the other fingers

SMILES: CC1CCC(C(C)C)C(O)C1 (centres unmarked) [menthol]
- NOS3 expression reduction [2, 5]: 62%
- PTGIS expression reduction [2, 5]: 61%
- increase in expression of ET1 [2, 5]: 2.4 folds
- Ca2+ influx in MVEC ([3]; 500 μM/L menthol, human microvascular endothelial cells): increase in Ca^2+ influx
- intracellular calcium levels ([3]; SSc MVEC and healthy MVEC, Fluo-4AM, 10 minutes): increases intracellular calcium levels
